“Also recorded” adds a separate entry of the source. Residues, ends and D or L forms follow the SMILES beside them. *: point of attachment. Cbz = O=C(OCc1ccccc1)*
Key:
[1] = test system: p53-HDMX complex (JEG-3 cells); assay: Anti-HDMX immunoprecipitation, p53 western, JEG-3; type: cell-based, human
A431 cells (R273H p53) = assay: Cell viability A431; type: cell-based; conditions: 0.3–20 µM, 24 h, CellTiter-Glo; R273H p53 mutation
SJSA-X cells [2] = assay: Combination / synergy study, SJSA-X; type: cell-based; conditions: SJSA-X (induced HDMX expression in isogenic SJSA-1), 0.5–20 µM; Figure 7G
MCF-7 cells [3] = conditions: ref Wade et al., 2008; cited from earlier work
p53 (JEG-3 cells) = assay: p53 western analysis, JEG-3; type: cell-based, human; conditions: 20 µM, 6 h, Figure 4A
JEG-3 cells = assay: Cell viability JEG-3; type: cell-based, human; conditions: 0.3–20 µM, 24 h, CellTiter-Glo; HDMX-overexpressing choriocarcinoma; Figure 3C
[4] = test system: p53-HDMX complex (MCF-7 cells); assay: Anti-HDMX immunoprecipitation, p53 western, MCF-7; type: cell-based; conditions: Nutlin-3 20 µM alone or with 5 or 20 µM SAH-p53-8, 10 µM MG-132, 6 h, Figure 7A
MCF-7 cells [5] = assay: Cell viability MCF-7; type: cell-based; conditions: 0.3–20 µM, 24 h, CellTiter-Glo; HDM2- and HDMX-expressing breast cancer; Figure 3A–E
[6] = test system: osteosarcoma murine xenograft; conditions: ref Vassilev et al., 2004; cited from earlier work
[7] = test system: WS1 normal human fibroblasts; assay: Cell viability WS1 normal fibroblasts; conditions: 0.3–20 µM, 24 h, CellTiter-Glo; Figure 3I
HCT116 cells = assay: Cell viability HCT116; type: cell-based; conditions: 0.3–20 µM, 24 h, CellTiter-Glo; HDM2- and HDMX-expressing colon cancer; Figure 3A–E
HDM2 = conditions: ref Vassilev et al., 2004; cited from earlier work
SJSA-X cells [8] = assay: Cell viability SJSA-X; type: cell-based; conditions: 0.3–20 µM, 24 h, CellTiter-Glo; overexpresses HDM2 and HDMX; Figure 3B
SJSA-1 cells = assay: Cell viability SJSA-1; type: cell-based; conditions: 0.3–20 µM, 24 h, CellTiter-Glo; HDM2-overexpressing osteosarcoma; Figure 3A
[9] = ref Vassilev et al., 2004; cited from earlier work
[10] = test system: HCT116 cells deficient in p53; assay: Cell viability HCT116 deficient in p53; type: cell-based; conditions: 0.3–20 µM, 24 h, CellTiter-Glo; genetic deletion of p53; Figure 3F, 3G
p53 (MCF-7 cells) = assay: p53 western analysis, MCF-7; conditions: Nutlin-3 20 µM, 10 µM MG-132, 6 h, Figure 7A
[11] = test system: caspase-3/7 (JEG-3 cells); assay: Caspase-3/7 activation, JEG-3; type: cell-based, human; conditions: 0.3–10 µM, 12 h, Caspase-3/7-Glo, Figure 5B

CC(C)C[C@@H](C=O)NC(=O)[C@H](CC(C)C)NC(=O)[C@H](CC(C)C)NC(=O)OCc1ccccc1 [MG-132] (Cbz-Leu-Leu-Leu-aldehyde)
p53-HDMX complex in the presence of MG-132 ([1]; 0–20 µM SAH-p53-8 with 10 µM MG-132, 6 h, Figure 4B): increased p53-HDMX complex

COc1ccc(C2=N[C@@H](c3ccc(Cl)cc3)[C@@H](c3ccc(Cl)cc3)N2C(=O)N2CCNC(=O)C2)c(OC(C)C)c1 [Nutlin-3]
cell viability A431 (A431 cells (R273H p53)): similarly unaffected
single-agent effect in synergy study (SJSA-X cells [2]): ineffective as a single agent
sensitivity of MCF-7 to Nutlin-3 (MCF-7 cells [3]): only modestly sensitive
p53 levels (p53 (JEG-3 cells)): an increase in p53 levels was observed
cell viability JEG-3 (JEG-3 cells): little to no response; also recorded: most resistant to Nutlin-3
p53-HDMX complex [4]: appearance of the inhibitory p53-HDMX complex
cell viability MCF-7 (MCF-7 cells [5]): modestly sensitive
p53-HDMX complex ([1]; 20 µM, 6 h, anti-HDMX IP, Figure 4A): p53-HDMX complexes were preserved, if not increased
anti-tumor efficacy [6]: exhibits anti-tumor efficacy
viability of normal human fibroblasts WS1 [7]: no impact on the viability of normal human fibroblasts
cell viability HCT116 (HCT116 cells): modestly sensitive
inhibition of HDM2 (HDM2): inhibits HDM2
cell viability SJSA-X (SJSA-X cells [8]): little to no response
cell viability SJSA-1 (SJSA-1 cells): very sensitive; also recorded: more cytotoxic than SAH-p53-8 in SJSA-1 cells
cell cycle arrest and apoptosis [9]: triggers cell cycle arrest and apoptosis
cell viability HCT116 deficient in p53 [10]: completely insensitive
p53 levels (p53 (MCF-7 cells)): can elevate p53 levels in MCF-7 cells
caspase-3/7 activation [11]: little effect

Reference: publication PMC3050021 (Cancer cell, 2010)
